Data published in patent US8063067B2, “Hexenoic acid derivatives, processes for the preparation thereof, pharmaceutical compositions comprising them, and therapeutic applications thereof” (Merck Patent GmbH, priority 2004, dated 2011).
Marks after values point to notes of the source that are not given here.

Columns and labels:
[1] = biological target: T1, chimeric protein PPARα-Gal4 (Homo sapiens, UniProt Q07869); experiment: PPARα-Gal4 chimera luciferase reporter transactivation in co-transfected CV-1 cells; assay type: cell-based; settings: CV-1 cells (monkey kidney cells), 18 hours contact, fold relative to control cells without product
T1 construct: expressed in transfected cells; host or cells: CV-1 cells (monkey kidney cells)
T1 sequence (Q07869 239-466 limits assumed): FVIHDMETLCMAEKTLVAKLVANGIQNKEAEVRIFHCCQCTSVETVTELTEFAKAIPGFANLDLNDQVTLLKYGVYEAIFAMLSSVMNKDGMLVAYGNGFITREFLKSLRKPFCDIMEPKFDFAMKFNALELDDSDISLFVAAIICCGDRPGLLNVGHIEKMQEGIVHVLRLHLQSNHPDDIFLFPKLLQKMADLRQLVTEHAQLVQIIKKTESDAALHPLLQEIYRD
Description: (§1) The measurement of the PPAR activation was performed according to a technique described by Lehmann et al. (J. Biol. Chem., 270, (1995), 12953-12956).
(§2) CV-1 cells (monkey kidney cells) are co-transfected with an expression vector for the chimeric proteins PPARα-Gal4 or PPARγ-Gal4 and with a “reporter” plasmid that allows the expression of the luciferase gene placed under the control of a promoter comprising Gal4 response elements.
(§3) The cells are plated into 96-well microplates and co-transfected using a commercial reagent with the reporter plasmid (pG5-tk-pGL3) and the expression vector for the chimeric protein (PPARα-Gal4 or PPARγ-Gal4). After incubating for 4 hours, whole culture medium (comprising 10% foetal calf serum) is added to the wells. After 24 hours, the medium is removed and replaced with whole medium comprising the test products (50 μM, 25 μM and 12.5 μM final). The products are left in contact with the cells for 18 hours. The cells are then lysed and the luciferase activity is measured using a luminometer. A PPAR activation factor can then be calculated by means of activation of the expression of the reporter gene induced by the product (relative to the control cells that have not received any product).

[2] = biological target: T2, chimeric protein PPARγ-Gal4 (Homo sapiens, UniProt P37231); experiment: PPARγ-Gal4 chimera luciferase reporter transactivation in co-transfected CV-1 cells; assay type: cell-based; settings: CV-1 cells (monkey kidney cells), 18 hours contact, fold relative to control cells without product
T2 construct: expressed in transfected cells; host or cells: CV-1 cells (monkey kidney cells)
T2 sequence (P37231 238-503 limits assumed): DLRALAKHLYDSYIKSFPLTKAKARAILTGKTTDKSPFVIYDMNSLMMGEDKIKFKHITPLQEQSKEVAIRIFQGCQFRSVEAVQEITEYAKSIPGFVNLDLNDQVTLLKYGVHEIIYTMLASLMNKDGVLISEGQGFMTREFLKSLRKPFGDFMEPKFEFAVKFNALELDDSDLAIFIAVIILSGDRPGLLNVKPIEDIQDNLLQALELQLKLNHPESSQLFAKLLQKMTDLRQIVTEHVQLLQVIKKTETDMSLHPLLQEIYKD
Description: as §1, §2, §3

[3] = biological target: T3, Gal4 alone (Saccharomyces cerevisiae, UniProt P04386); experiment: Luciferase reporter control with vector expressing Gal4 alone (no PPAR ligand binding domain); assay type: cell-based; settings: CV-1 cells
T3 construct: expressed in transfected cells; host or cells: CV-1 cells (monkey kidney cells)
T3 sequence (P04386 whole entry, the tested form may be a part): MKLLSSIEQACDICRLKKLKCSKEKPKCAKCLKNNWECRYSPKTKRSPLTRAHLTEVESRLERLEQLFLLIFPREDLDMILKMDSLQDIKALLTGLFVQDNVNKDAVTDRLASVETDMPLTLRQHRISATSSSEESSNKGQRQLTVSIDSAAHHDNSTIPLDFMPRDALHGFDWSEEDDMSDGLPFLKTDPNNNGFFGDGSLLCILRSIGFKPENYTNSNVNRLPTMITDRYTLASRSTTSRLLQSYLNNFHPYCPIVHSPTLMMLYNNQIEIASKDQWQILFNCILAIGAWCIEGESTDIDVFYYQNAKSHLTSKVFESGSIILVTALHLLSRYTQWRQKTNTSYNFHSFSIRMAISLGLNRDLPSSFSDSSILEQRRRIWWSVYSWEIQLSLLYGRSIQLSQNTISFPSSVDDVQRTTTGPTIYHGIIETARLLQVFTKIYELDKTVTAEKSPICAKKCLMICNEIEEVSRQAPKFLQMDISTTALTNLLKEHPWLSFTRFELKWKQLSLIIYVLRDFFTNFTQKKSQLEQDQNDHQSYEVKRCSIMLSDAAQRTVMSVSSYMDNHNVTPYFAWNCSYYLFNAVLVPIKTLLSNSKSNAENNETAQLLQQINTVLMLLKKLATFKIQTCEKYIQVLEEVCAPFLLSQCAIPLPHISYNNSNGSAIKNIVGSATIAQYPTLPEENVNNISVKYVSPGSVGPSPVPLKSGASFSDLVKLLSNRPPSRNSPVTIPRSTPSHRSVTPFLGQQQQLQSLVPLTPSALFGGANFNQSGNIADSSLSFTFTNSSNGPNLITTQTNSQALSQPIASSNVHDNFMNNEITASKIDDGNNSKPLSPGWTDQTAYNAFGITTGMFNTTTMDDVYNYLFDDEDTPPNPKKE
Description: CV-1 cells (monkey kidney cells) are co-transfected with an expression vector for the chimeric proteins PPARα-Gal4 or PPARγ-Gal4 and with a “reporter” plasmid that allows the expression of the luciferase gene placed under the control of a promoter comprising Gal4 response elements. The cells are plated into 96-well microplates and co-transfected using a commercial reagent with the reporter plasmid (pG5-tk-pGL3) and the expression vector for the chimeric protein (PPARα-Gal4 or PPARγ-Gal4). After incubating for 4 hours, whole culture medium (comprising 10% foetal calf serum) is added to the wells. After 24 hours, the medium is removed and replaced with whole medium comprising the test products (50 μM, 25 μM and 12.5 μM final). The products are left in contact with the cells for 18 hours. The cells are then lysed and the luciferase activity is measured using a luminometer. A PPAR activation factor can then be calculated by means of activation of the expression of the reporter gene induced by the product (relative to the control cells that have not received any product). […] In the absence of the binding domain for the PPAR α or γ ligand (vector expressing Gal4 alone), the luciferase activity measured in the presence of this product is zero.

[4] = test system: db/db mice; experiment: Antidiabetic and hypolipidaemiant activity, oral, db/db mice; assay type: in vivo; settings: oral 100 mg/kg/day
Description: The antidiabetic and hypolipidaemiant activity of the compounds was determined orally on db/db mice
17-week-old db/db mice are treated orally for 15 days with the compound of Example 2 (100 mg/kg/day). Each group studied comprises seven animals. After treatment for 15 days, retro-orbital samples are taken under mild anaesthesia and after fasting for four hours.
The following parameters were measured:
Assay of the glycaemia (glucose oxidase) and of the lipid parameters on the sera at D15 (COBAS): triglycerides, total cholesterol (CHOL), HDL cholesterol (HDL-C) and free fatty acids (FFA) (BioMérieux and Waco Chemicals assay kit).
The measurements reported represent mean values±standard error.

[5] = 15 days, p < 0.05 versus control
[6] = serum at D15, mean ± standard error

## C=CCCC(Oc1ccc(-c2ccc(OC)cc2)cc1)C(=O)O (stereo not shown) [Example 8]
other
  melting point: 128 to 130 °C

## O=C(O)C(CCC1=CCCCC1)Oc1ccc(C(F)(F)F)cc1 (stereo not shown) [Example 2, 4-cyclohex-1-enyl-2-[4-(trifluoromethyl)phenoxy]butanoic acid]
[1]; 12.5 μM
  PPAR activation factor, Chimer α: 3.6
[1]; 25 μM
  PPAR activation factor, Chimer α: 17.2
[1]; 50 μM
  PPAR activation factor, Chimer α: 24.9
[2]; 12.5 μM
  PPAR activation factor, Chimer γ: 2.2
[2]; 25 μM
  PPAR activation factor, Chimer γ: 5.2
[2]; 50 μM
  PPAR activation factor, Chimer γ: 9.3
[3]
  luciferase activity in the absence of the binding domain for the PPAR α or γ ligand: zero
[4]; 15 days, fasted four hours, mean ± standard error
  Glycaemia: 23.23 ± 5.43 mM
[4]; 15 days, not significant
  CHOL, % var. (percentage of variation versus control): +28% ns
[4]; 15 days, p < 0.01 versus control
  FFA, % var. (percentage of variation versus control): −34% **
[4]; [5]
  Glycaemia, % var. (percentage of variation versus control): −26% *
  HDL-C, % var. (percentage of variation versus control): +21% *
  Triglycerides, % var. (percentage of variation versus control): −55% *
[4]; [6]
  CHOL (total cholesterol): 6.04 ± 0.61 mM
  FFA (free fatty acids): 0.48 ± 0.12 mM
  HDL-C: 4.26 ± 0.61 mM
  Triglycerides: 1.05 ± 0.29 mM
other
  melting point: 109 to 111 °C

## C=CCCC(Oc1ccc(-c2ccc(Cl)cc2)cc1)C(=O)O (stereo not shown) [Example 16]
other
  melting point: 127 °C

## C=CCCC(Oc1ccc(C(F)(F)F)cc1)C(=O)O (stereo not shown) [Example 86]
other
  melting point: 70 °C

## C=CCCC(Oc1ccc(Oc2ccccc2)cc1)C(=O)O (stereo not shown) [Example 87]
other
  melting point: 61 °C

## O=C(O)C(CCC1=CCCCC1)Oc1ccc(-c2ccc(F)cc2)cc1 (stereo not shown) [Example 19]
other
  melting point: 156 to 158 °C

## C=CCCC(Oc1ccc(C(=O)/C=C/c2ccccc2)cc1)C(=O)O (stereo not shown) [Example 92]
other
  melting point: 125 °C

## C=CCCC(Oc1ccc(-c2ccc(OC(F)(F)F)cc2)cc1)C(=O)O (stereo not shown) [Example 95]
other
  melting point: 115 to 116 °C

## O=C(O)C(CCC1=CCCC1)Oc1ccc2oc3ccccc3c2c1 (stereo not shown) [Example 11]
other
  melting point: 140 to 142 °C

## O=C(O)C(CCC1=CCCCC1)Oc1ccc(Cl)cc1 (stereo not shown) [Example 13]
[1]; 12.5 μM
  PPAR activation factor, Chimer α: 6
[1]; 25 μM
  PPAR activation factor, Chimer α: 4.8
[1]; 50 μM
  PPAR activation factor, Chimer α: 12.5
[2]; 12.5 μM
  PPAR activation factor, Chimer γ: 7.2
[2]; 25 μM
  PPAR activation factor, Chimer γ: 5.3
[2]; 50 μM
  PPAR activation factor, Chimer γ: 8.5

## C=CCCC(Oc1ccc(-c2cc3ccccc3s2)cc1)C(=O)O (stereo not shown) [Example 94]
other
  melting point: 183 °C

## C=CCCC(Oc1ccc(-c2ccc(F)cc2)cc1)C(=O)O (stereo not shown) [Example 12]
[1]; 12.5 μM
  PPAR activation factor, Chimer α: 4.3
[1]; 25 μM
  PPAR activation factor, Chimer α: 13.1
[1]; 50 μM
  PPAR activation factor, Chimer α: 19.9
[2]; 12.5 μM
  PPAR activation factor, Chimer γ: 1
[2]; 25 μM
  PPAR activation factor, Chimer γ: 3.4
[2]; 50 μM
  PPAR activation factor, Chimer γ: 15.6
other
  melting point: 97 °C

## C=CCCC(Oc1ccc(-c2cc(C)ccc2C)cc1)C(=O)O (stereo not shown) [Example 90]
other
  melting point: 95 to 98 °C

## O=C(O)C(CCC1=CCCCC1)Oc1ccc(-c2cc3ccccc3s2)cc1 (stereo not shown) [Example 18]
other
  melting point: 171 to 174 °C

## C=CCCC(Oc1ccc(-c2csc(C)n2)cc1)C(=O)O (stereo not shown) [Example 89]
other
  melting point: 120 °C

## C=CCCC(Oc1ccc(C(=O)c2ccc(Cl)cc2)cc1)C(=O)O (stereo not shown) [Example 17]
other
  melting point: 141 °C

## O=C(O)C(CCC1=CCCCC1)Oc1ccc2oc3ccccc3c2c1 (stereo not shown) [Example 10]
other
  melting point: 142 to 144 °C

## C=CCCC(Oc1cccc(OCc2ccc3ccccc3n2)c1)C(=O)O (stereo not shown) [Example 88]
other
  melting point: 125 °C

## C=CCCC(Oc1ccc(-c2csc3ccccc23)cc1)C(=O)O (stereo not shown) [Example 93]
other
  melting point: 98 °C

## C=CCCC(Oc1ccc(-c2cccc(F)c2)cc1)C(=O)O (stereo not shown) [Example 97]
other
  melting point: 110 °C

## C=CCCC(Oc1ccc(-c2ccc(F)c(F)c2)cc1)C(=O)O (stereo not shown) [Example 98]
other
  melting point: 70 to 72 °C
